Measured values as given in ChEMBL document CHEMBL1201862, “PubChem BioAssay data set” (2004).
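Tested at 5 concentrations; 48 h exposure; 96-well plates; endpoints linearly interpolated, else capped at highest concentration. GI50: concentration for 50% inhibition of growth.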 Activity calls are given as the source filed them. Rule as the data show it: active = GI50 up to about 1.1 µM and inactive = higher.

Columns and labels:
Assay in all cases: inhibition of tumour cell growth, NCI panel, 48 h
SNB-19 = system: SNB-19
SNB-75 = system: SNB-75
PC-3 = system: PC-3
Hs-578T = system: Hs-578T
MDA-MB-435 = system: MDA-MB-435
U-251 = system: U-251
BT-549 = system: BT-549
OVCAR-3 = system: OVCAR-3
OVCAR-5 = system: OVCAR-5
MOLT-4 = system: MOLT-4
DU-145 = system: DU-145
HOP-62 = system: HOP-62
NCI-H226 = system: NCI-H226
UACC-257 = system: UACC-257
EKVX = system: EKVX
SW-620 = system: SW-620
SF-539 = system: SF-539
SK-MEL-2 = system: SK-MEL-2
RPMI-8226 = system: RPMI-8226
K562 = system: K562

Measured: GI50

CC1=CC(=O)/C(=C/n2c(=S)[nH]c3cc(C)ccc32)C(=O)O1
inactive: SNB-19 > 100 µM | SNB-75 > 100 µM | PC-3 > 100 µM | Hs-578T > 100 µM | MDA-MB-435 > 100 µM | U-251 > 100 µM | BT-549 > 100 µM | OVCAR-3 > 100 µM | OVCAR-5 > 100 µM | MOLT-4 > 100 µM | DU-145 > 100 µM | HOP-62 > 100 µM | NCI-H226 > 100 µM | UACC-257 > 100 µM | EKVX > 100 µM | SW-620 > 100 µM | SF-539 > 100 µM | SK-MEL-2 > 100 µM

O=C(C/C(=N/O)C(=O)NC1=C(Cl)C(=O)c2ccccc2C1=O)CC(c1ccccc1)c1c(O)c2ccccc2oc1=O (centres undefined)
inactive: SNB-19 19.1 µM | SNB-75 3.87 µM | PC-3 3.92 µM | Hs-578T 6.76 µM | MDA-MB-435 2.22 µM | U-251 7.69 µM | BT-549 16.4 µM | OVCAR-3 3.88 µM | OVCAR-5 17.7 µM | MOLT-4 17.9 µM | DU-145 3.27 µM | NCI-H226 2.48 µM | UACC-257 18.5 µM | RPMI-8226 19.1 µM | EKVX 14.5 µM | SW-620 6.58 µM | SF-539 8.11 µM | SK-MEL-2 10.6 µM | K562 16.3 µM

Cc1ccc2c(c1)[nH]c(=S)n2C=C1C(=O)CC(C)(C)CC1=O
inactive: SNB-19 > 100 µM | SNB-75 > 100 µM | PC-3 > 100 µM | Hs-578T > 100 µM | MDA-MB-435 > 100 µM | U-251 > 100 µM | BT-549 > 100 µM | OVCAR-3 > 100 µM | OVCAR-5 > 100 µM | MOLT-4 > 100 µM | DU-145 > 100 µM | HOP-62 > 100 µM | NCI-H226 > 100 µM | UACC-257 > 100 µM | EKVX 18.9 µM | SW-620 > 100 µM | SF-539 > 100 µM | SK-MEL-2 > 100 µM

Cc1c(C#N)c2nnn(-c3ccc([N+](=O)[O-])cc3)c(=O)n2c1-c1ccccc1
inactive: SNB-19 11.6 µM | SNB-75 19.8 µM | PC-3 4.26 µM | Hs-578T 25.5 µM | MDA-MB-435 13 µM | U-251 4.26 µM | BT-549 14.6 µM | OVCAR-3 3.03 µM | OVCAR-5 17.1 µM | DU-145 9.44 µM | HOP-62 7.29 µM | NCI-H226 12.6 µM | UACC-257 16.9 µM | RPMI-8226 3.13 µM | EKVX 8.89 µM | SW-620 10.2 µM | SF-539 14.6 µM | SK-MEL-2 9.57 µM | K562 3.37 µM
